Measurements as given in patent US7875653B2, “Emulsion comprising 1,2-alkanediols and polar oil components” (Beiersdorf AG, priority 2005, dated 2011).

Assay: Polarity: interfacial tension towards water
Type: physicochemical
Excerpt: Oils and fats differ from one another in their polarity, which is difficult to define. It has already been proposed to adopt the interfacial tension towards water as a measure of the polarity index of an oil or of an oil phase. The lower the interfacial tension between this oil phase and water, the greater the polarity of the oil phase in question. According to the present invention, the interfacial tension is regarded as one possible measure of the polarity of a given oil component.
The interfacial tension is the force which acts on an imaginary line one meter in length at the interface between two phases. The physical unit for this interfacial tension is conventionally calculated from the force/length relationship and is usually expressed in mN/m (millinewtons divided by meters). It has a positive sign if it tends to reduce the interface. In the converse case, it has a negative sign. For the purposes of the present invention, lipids are regarded as polar if their interfacial tension towards water is less than about 20 mN/m, and as nonpolar if their interfacial tension towards water is more than about 30 mN/m. Lipids with an interfacial tension towards water between about 20 and about 30 mN/m are generally referred to as moderately polar.

[1] = moderately polar lipids, between about 20 and about 30 mN/m
[2] = polar lipids, less than about 20 mN/m

Molecule | Polarity (interfacial tension towards water) [1] [mN/m] | Polarity (interfacial tension towards water) [2] [mN/m]
CCCCCCCCCC(=O)OCCCC(C)C [Dermol IHD, Isohexyl decanoate] | 29.7 | 
CCCCCCCC(=O)OCCCCCCCC(C)C [Dermol 108, Isodecyl octanoate] | 29.6 | 
CC(C)CCCCCCCOC(=O)CC(C)CC(C)(C)C (stereo not shown) [Dermol 109, Isodecyl 3,5,5-trimethyl hexanoate] | 29.1 | 
CCCCC(CC)C(=O)OCCC(C)CC(C)(C)C (stereo not shown) [Dermol 98, 2-Ethylhexanoic acid 3,5,5 trimethyl ester] | 26.2 | 
CCCCCCOCCCCCC [Dihexyl ether] | 29.2 | 
CCCCOC(=O)CCCCC(=O)OCCCC [Cetiol B, Dibutyl adipate] |  | 14.3
CC(C)CCCCCCCOC(=O)C(C)(C)C [DUB VCI 10, Isodecyl neopentanoate] | 29.9 | 
Isotridecyl 3,5,5 trimethyl hexanona-noate [Dermol 139] | 24.5 | 
CCCCCCCCCCCCCCCCCC(=O)OC(C)C [Isopropyl stearate] | 21.9 | 
CCCCCCCCCCC(CO)CCCCCCCC (stereo not shown) [Eutanol G, Octyldodecanol] | 24.8 | 
CCCCCCCC(=O)OCC(COC(=O)CCCCCCC)OC(=O)CCCCCCC [Trivent OCG, Tricaprylin] | 20.2 | 
CCCCCCCCCCCCCC(=O)OCC(CCCCCCCC)CCCCCCCCCC (stereo not shown) [M.O.D., Octyldodecyl myristate] | 22.1 | 
CCCCCCCCCCCCCCCCCCOC(=O)CCCCCC [Tegosoft SH, Stearyl heptanoate] |  | 17.8
Triisostearin [Prisorine 2041 GTIS] |  | 2.4
PEG 2 Diethylene hexanoate [Dermol 488] |  | 10.1
CCCCCCC(CCCC)C(=O)O (stereo not shown) [Isocarb 12, Butyl octanoic acid] | 22.1 | 
